In patent US7892767B2, “Phosphospecific chemokine receptor antibodies” (Washington University in St. Louis, priority 2005, dated 2011):

Key:
U87 glioblastoma cells [1] = experiment: Intracellular cAMP by ELISA, U87 glioblastoma cells; assay type: cell-based, human
Method: (§1) Growth factor and drug treatment. Following serum-starvation for 24 hours, astrocytes, granule cells, U87 cells and Daoy cells, were treated with 1 μg/ml CXCL12 (PeproTech), […] AMD3465 (kind gift from Simon Fricker, AnorMED, Langley, BC, Canada) (200 μM Rolipram (Sigma), or 10 μM Forskolin (Sigma) as indicated.
(§2) cAMP measurement in cell culture. cAMP concentration was measured using a Correlated-EIA™. Enzyme Immunoassay Kit (Assay Designs Inc. MI) according to the manufacturer's instructions. Briefly, U87 or Daoy cells were serum-starved for 24 hours, and treated with CXCL12 (1 μg/ml), Rolipram (200 μM), or forskolin (10 μM). Cells were lysed in 0.1M HCL and particulate matter was removed by centrifugation at >600×g for 10 min. The supernatants were dried down and resuspended in assay buffer.
(§3) Determination of cAMP concentration. Competitive immunoassay for cAMP concentration was performed exactly as directed by the manufacturer. Absorbance at 405 nm was measured and cAMP concentrations were determined by calculation based on a standard curve. Protein concentrations were measured by colormetric assay (Bio-Rad, Hercules, Calif.) according to the manufacturer's directions. cAMP values were normalized to protein for each sample individually.

[2] = system: Daoy medulloblastoma cells; experiment: Intracellular cAMP by ELISA, Daoy medulloblastoma cells; assay type: cell-based, human
Method: as §1, §2, §3

U87 glioblastoma cells [3] = experiment: Viable cell number by trypan blue exclusion, U87 cells; assay type: cell-based, human; conditions: Rolipram 200 μM, AMD 3465 2.5 μg/ml; for effect on CXCL12 induced growth: with CXCL12 1 μg/ml, Forskolin 10 μM
Method: (§4) Brain tumor cell cultures. Cells were cultured in αMEM (Invitrogen, Carlsbad, Calif.) supplemented with 10% FCS (Biomedia, Foster City, Calif.) in the presence of penicillin streptomycin at 37° C. with 5% CO2.
as §1

[4] = system: Daoy medulloblastoma cells; experiment: Viable cell number by trypan blue exclusion, Daoy cells; assay type: cell-based, human; conditions: Rolipram 200 μM, AMD 3465 2.5 μg/ml; for effect on CXCL12 induced growth: with CXCL12 1 μg/ml, Forskolin 10 μM
Method: as §4, §1

U87 GBM xenografts = experiment: Intracranial U87 xenograft growth by bioluminescence imaging; assay type: in vivo, mouse
Daoy xenografts [5] = experiment: Intracranial Daoy xenograft growth by bioluminescence imaging; assay type: in vivo, mouse
Daoy xenografts [6] = experiment: cAMP in xenograft tumor tissue by ELISA; assay type: in vivo, mouse; conditions: same treatment paradigms as growth studies, EGFP-luciferase xenografts
Method: cAMP measurement in tumor tissue. EGFP-expressing tumor tissue was removed under direct fluorescence microscopy and frozen in liquid nitrogen. Frozen tissue was weighed and homogenized with 10 volumes of 10% ice-cold trichloroacetic acid, then centrifuged for 10 min at 4000 rpm to remove precipitate. The supernatant was washed three times with 8 volumes of water-saturated ether. The aqueous phase was dried down and resuspended in cAMP assay buffer.
as §3
To ascertain whether the in vivo anti-tumor effects of Rolipram and AMD 3465 were correlated with increases in intratumoral cAMP, we repeated the treatment paradigms with Daoy xenografts that had been engineered to express both enhanced green fluorescent protein (EGFP) and firefly luciferase. […] Tumor tissue was easily visualized in situ under direct fluorescence microscopy (FIG. 20A). Cyclic AMP was extracted from GFP positive tissue, and cAMP levels were measured by ELISA.

[7] = system: PDE4A-expressing U87 cells; experiment: Viable cell number, PDE4A-expressing U87 cells; assay type: cell-based, human; conditions: CXCL12 1 μg/ml, AMD 3465 2.5 μg/ml, Rolipram 200 μM
Method: (§5) PDE4A expression. U87 and Daoy cells (15,000 cells) were transiently transfected for 48 h with a plasmid encoding a transgene for the tet-off transactivator (tTA) alone (kind gift from Dr. Louis Muglia, Washington University School of Medicine, St. Louis, Mo.), a plasmid containing a transgene for tet-off regulated expression of phosphodiesterase 4A (PDE4A) alone (kind gift from Dr. James Cherry, Boston University, Boston, Mass.), or a combination of both plasmids, using lipofectamine (Invitrogen) according to the manufacturer's instructions. Plasmid DNA (2 μg) was mixed with lipofectamine (5 μl) per 35 mm^2 dish. Transfection proceeded for 9 hours prior to exchanging transfection media for αMEM supplemented with 10% FCS.

[8] = system: PDE4A-expressing Daoy cells; experiment: Viable cell number, PDE4A-expressing Daoy cells; assay type: cell-based, human; conditions: CXCL12 1 μg/ml, AMD 3465 2.5 μg/ml, Rolipram 200 μM
Method: as §5

[9] = Tolerability in xenograft-bearing mice; assay type: in vivo, mouse; conditions: 5 μg/g/day in the drinking water
[10] = in vivo; cited from earlier work
CXCR4 = CXCR4 (Homo sapiens, UniProt P61073); conditions: compared with AMD 3100, reference (84); cited from earlier work
[11] = added to chemotherapy and radiation therapy; decreased consciousness and increased seizure activity; reference (109); cited from earlier work
[12] = Rolipram 200 μM or Forskolin 10 μM, not abrogated by CXCL12
[13] = 5 μg/g/day in the drinking water, from two weeks after tumor cell injection
[14] = AMD 3465 2.5 μg/ml coadministered with CXCL12 1 μg/ml
[15] = continuous subcutaneous infusion 50 μg/day (2.5 mg/kg/day) for 5 weeks

Sequence of CXCR4 (P61073 whole entry, species assumed): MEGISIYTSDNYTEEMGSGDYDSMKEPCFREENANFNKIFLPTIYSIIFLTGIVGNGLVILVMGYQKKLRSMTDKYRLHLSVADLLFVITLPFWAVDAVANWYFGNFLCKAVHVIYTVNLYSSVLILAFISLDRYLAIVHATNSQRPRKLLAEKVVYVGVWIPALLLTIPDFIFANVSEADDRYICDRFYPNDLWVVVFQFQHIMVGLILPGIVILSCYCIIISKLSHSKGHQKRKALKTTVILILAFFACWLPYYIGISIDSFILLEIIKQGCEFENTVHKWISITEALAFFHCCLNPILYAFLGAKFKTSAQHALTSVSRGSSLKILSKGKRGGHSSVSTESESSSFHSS

Structure (SMILES): COc1ccc(C2CNC(=O)C2)cc1OC1CCCC1 (centres unmarked) [Rolipram]
- change in intracellular cAMP (U87 glioblastoma cells [1]; [12]): predictable increases
- change in intracellular cAMP [2, 12]: predictable increases
- effect on cell number alone (U87 glioblastoma cells [3]): little to no effect
- effect on CXCL12 induced growth (U87 glioblastoma cells [3]): completely blocked
- effect on cell number alone [4]: little to no effect
- effect on CXCL12 induced growth [4]: completely blocked
- inhibition of xenograft growth (U87 GBM xenografts; [13]): 96%
- inhibition of xenograft growth (Daoy xenografts [5]; [13]): 58%
- amount of cAMP within tumor tissue (Daoy xenografts [6]): significant increase
- effect on cell number [7]: growth inhibitory effect
- effect on cell number [8]: growth inhibitory effect
- animal weights compared to the control group ([9]; data not shown): better maintained
- appearance of treated animals ([9]; throughout the treatment period): appeared well
- blood brain barrier passage [10]: crosses an intact blood brain barrier

Structure (SMILES): c1ccc(CNCc2ccc(CN3CCCNCCNCCCNCC3)cc2)nc1 [AMD 3465]
- effect on cAMP levels alone (U87 glioblastoma cells [1]; AMD 3465 2.5 μg/ml): little to no effect
- CXCL12-induced suppression of cAMP (U87 glioblastoma cells [1]; [14]): blocked
- effect on cAMP levels alone ([2]; AMD 3465 2.5 μg/ml): little to no effect
- CXCL12-induced suppression of cAMP [2, 14]: blocked
- effect on cell number alone (U87 glioblastoma cells [3]): no significant effect
- effect on CXCL12 induced growth (U87 glioblastoma cells [3]): completely blocked
- effect on cell number alone [4]: no significant effect
- effect on CXCL12 induced growth [4]: completely blocked
- inhibition of xenograft growth as compared to controls (U87 GBM xenografts; [15]): 80%
- inhibition of xenograft growth as compared to controls (Daoy xenografts [5]; [15]): 85%
- amount of cAMP within tumor tissue (Daoy xenografts [6]): significant increase
- effect on cell number [7]: no effect
- effect on cell number [8]: no effect
- affinity for CXCR4 (CXCR4): greater affinity

Structure (SMILES): CC(=O)CCCCn1c(=O)c2c(ncn2C)n(C)c1=O [Pentoxiphyllin]
- toxicity [11]: excessive toxicity
